The text below walks through data of publication PMC13267044, “Ten previously undescribed norsesquiterpenoids from the fungus Marasmiellus candidus and their anti-inflammatory activities” (Mycology, 2025).

In data set [1] the test system is RAW 264.7 cells. Nature of the data set: NO production inhibition in LPS-induced RAW 264.7 cells (Griess reagent method). It is filed as cell-based. The following applies: LPS-induced (10 μg/mL) RAW 264.7 cells, 24 h, mean ± standard deviation (n = 3). Here is the method:
RAW 264.7 cells were cultured as above, then divided into blank control, LPS-induced (10 μg/mL, model), and sample-treated groups. After 24 h, supernatants were centrifuged (12,000 r/min, 5 min) and collected. NO production was assessed using the standard Griess reagent method (Fan et al. [2023]).
Inhibition rate (%) = [(NOmodel – NOsample)/(NOmodel – NOblank)] × 100%.

The subject of data set [2] is RAW264.7 macrophages. Nature of the data set: Cell viability assay (CCK-8) in RAW264.7 macrophages. Format: cell-based. The following applies: RAW 264.7 cells, 24 h, tested at 20, 40, 80 μmol/L. On the procedure: RAW264.7 macrophages were seeded in 96-well plates (5 × 10^4 cells/well) and cultured at 37 °C with 5% CO₂ for 24 h. After adhesion, test samples (20, 40, 80 μmol/L) or medium (blank) were added and incubated for 24 h. Subsequently, 10 μL of CCK-8 solution was added, and after 2 h of incubation, the absorbance was measured at 450 nm.
Cell viability (%) = (ODsample/ODblank) × 100%

Structures are written as SMILES.

In data set [1] (Mus musculus, RAW264.7), `COC(=O)C(C)(C)c1ccc(C(=O)O)c2c1C(=O)OC2O` (racemic) [Compound 8, (±)-Marasmielolic acid D] came in with an IC50 of 50.8 ± 3.4 µM. Besides, in data set [2], the Cytotoxicity is greater than 80 µmol/L.

Regarding `N=C(N)NN` [Aminoguanidine, aminoguanidine, reference compound], the IC50 in data set [1] was found to be 12.5 ± 1.8 µM. Also, the Cytotoxicity in data set [2] is greater than 80 µmol/L.

Take `CC1(C)OC(=O)c2c1ccc1c2COC1=O` [Compound 1, Marasmiellactone R]: the midpoint of inhibition in data set [1] (Mus musculus, RAW264.7), the IC50, lay at 18.2 ± 1.9 µM. The Cytotoxicity in data set [2] was greater than 80 µmol/L.

`C[C@]1(CO)OC(=O)c2c1ccc1c2COC1=O` [Compound 2, Marasmiellactone S] displayed an IC50 in data set [1] (Mus musculus, RAW264.7) of 16.7 ± 1.6 µM. The molecule further had a Cytotoxicity in data set [2] greater than 80 µmol/L.

Take `CC(=O)OC[C@@]1(C)OC(=O)c2c1ccc1c2COC1=O` [Compound 3, 10-O-acetylmarasmiellactone S]: the IC50 in data set [1] (Mus musculus, RAW264.7) is 22.1 ± 2.6 µM. Moreover, in data set [2], the Cytotoxicity was greater than 80 µmol/L.

Molecule `C[C@@H]1OC(=O)c2c1ccc1c2COC1=O` [Compound 4, 10-normarasmiellactone R] returned an IC50 in data set [1] (Mus musculus, RAW264.7) of 15.5 ± 1.4 µM. The molecule also displayed a Cytotoxicity in data set [2] greater than 80 µmol/L.

In turn, `CC(C)(CC(=O)O)c1ccc(C(=O)O)c2c1C(=O)NC2=O` [Compound 5, Marasmielolic acid A] registered an IC50 in data set [1] (Mus musculus, RAW264.7) of 53.5 ± 3.9 µM. In data set [2], this molecule came in with a Cytotoxicity greater than 80 µmol/L.

With `CC(C)(CC(=O)O)c1ccc(C(=O)O)c2c1C(=O)OC2` [Compound 6, Marasmielolic acid B], the IC50 in data set [1] (Mus musculus, RAW264.7) stood at 65.4 ± 4.6 µM. For the same molecule, in data set [2], the Cytotoxicity is greater than 80 µmol/L.

Consider `CC(C)(C(=O)O)c1ccc(C(=O)O)c2c1C(=O)OC2` [Compound 7, normarasmielolic acid B], for which the IC50 in data set [1] (Mus musculus, RAW264.7) stood at 69.2 ± 3.1 µM. Moreover, the Cytotoxicity in data set [2] is greater than 80 µmol/L.

`COC(=O)c1c(C(=O)O)ccc2c1C(=O)OC2(C)C` [Compound 9, Marasmielolic acid E] had an IC50 in data set [1] (Mus musculus, RAW264.7) greater than 100 µM. The Cytotoxicity in data set [2] is greater than 80 µmol/L.

Take `COC(=O)c1c(C(=O)O)ccc2c1C(=O)C(O)=CC2(C)C` [Compound 10, Marasmielolic acid F]: the IC50 in data set [1] (Mus musculus, RAW264.7) is greater than 100 µM. For the same molecule, the Cytotoxicity in data set [2] is greater than 80 µmol/L.
